Results published in paper PMC12645191, “Dicarboxylate and dicarboxylic acid appended supramolecular self-associating amphiphiles as antimicrobial agents against high priority bacterial pathogens” (Organic & Biomolecular Chemistry, 2025).
≈ marks a conversion by molar mass, not a printed value. Where “and” joins values, the source holds several entries; their conditions need not be identical. Identical values can stand only once. Like-named read-outs stand apart in the source and are kept apart here.

What was measured:
E. faecalis NCTC 775 = assay: inhibition of bacterial growth, OD600 after 20 h; assay type: cell-based, Enterococcus faecalis; settings: SSA 5.0 mM, 2.5% ethanol, negative = enhanced growth, listed as 9
A. baumannii ATCC 17978 = assay: inhibition of bacterial growth, OD600 after 20 h; assay type: cell-based, Acinetobacter baumannii; settings: SSA 5.0 mM, 2.5% ethanol, negative = enhanced growth, listed as 9
S. aureus ATCC 9144 = assay: inhibition of bacterial growth, OD600 after 20 h; assay type: cell-based, Staphylococcus aureus; settings: SSA 5.0 mM, 2.5% ethanol, negative = enhanced growth, listed as 9
K. pneumoniae M6 = assay: inhibition of bacterial growth, OD600 after 20 h; assay type: cell-based, Klebsiella pneumoniae; settings: SSA 5.0 mM, 2.5% ethanol, negative = enhanced growth, listed as 9
[1] = metabolic stability in liver microsomes; assay type: in vitro ADME, rat
Method: (§1) Metabolic stability was assessed in mouse and rat liver microsomes. Microsomes are subcellular fractions of hepatocytes and contain CYP450s, the predominant enzymes involved in first-pass metabolism.[66] […] A plasma protein binding assay was performed to assess the extent of compound binding to plasma proteins. This is key as only unbound compound is free to distribute and exert a pharmacological effect. […] To assess the potential for this sub-class of SSAs to be developed as drugs for oral administration, Caco-2 permeability assays were also performed, as a cellular model indicative of human intestinal permeability.
(§2) Section 3: Biological methods […]
(§3) In vitro Absorption, Distribution and Metabolism
(§4) These studies were performed by Contract Research Organisation (CRO) Pharmaron. The methodology provided within the ESI is published within the express permission of this organisation. The percentage of a compound recovered during the analysis process should be 100 %; any deviation from this value indicates experimental limitations such as unintended potential non-specific binding events to experimental equipment, solubility issues, etc.
(§5) Metabolic Stability in Rat and Mouse Liver Microsomes:
(§6) The metabolic stability of compounds at a concentration of 1 µM, in rat and mouse liver […]
(§7) / mL) in the presence and absence of cofactor (NADPH) at 37 °C. Aliquots of each incubation were removed at 0.5, 5, 15, 30 and 60 minutes. The reaction was stopped by the addition of 5 volumes of cold acetonitrile containing analytical internal standard (IS).
(§8) Samples were then centrifuged at 3 °C, 220 g for 40 minutes to remove cell debris. The supernatant was aliquoted and added to ultra-pure H2O in a 1:1 ratio in preparation for LC- […]
(§9) Samples were analysed using a Shimadzu liquid chromatography system coupled to a Triple Quad 6500+ mass spectrometry (AB Inc.) Separation of compounds was achieved using an HSS T3 column (50 x 2.1 mm) at a temperature of 40 °C and a binary mobile phase gradient […]
(§10) at a flow rate of 0.7 mL/min. […]
(§11) acid in water) and 5 % solvent B (0.1 % formic acid in acetonitrile). […]
(§12) solvent B at 0.7 minutes, held for 0.5 minutes and then immedi ately returned to initial conditions. Sample analysis was by electrospray ionisation. […]

[2] = kinetic solubility determination in PBS pH 7.4; settings: PBS, pH 7.4, aqueous buffer, kinetic from dmso stock, Solubility in PBS pH 7.4, kinetic; upper limit set at 300 µM
E. faecium NCTC 12204 = assay: inhibition of bacterial growth, OD600 after 20 h; assay type: cell-based, Enterococcus faecium; settings: SSA 5.0 mM, 2.5% ethanol, negative = enhanced growth, listed as 9
[3] = metabolic stability in liver microsomes; assay type: in vitro ADME, mouse
Method: as §1, §2, §3, §4, §5, §6, §7, §8, §9, §10, §11, §12

O=C(O)CC[C@H](NC(=O)Nc1ccc(Br)cc1)C(=O)O [SSA 9]
Percentage inhibition of bacterial growth, NCTC 775 (E. faecalis) (E. faecalis NCTC 775): 20%
Percentage inhibition of bacterial growth, ATCC 17978 (A. baumannii) (A. baumannii ATCC 17978): -8.08% and −8%
Percentage inhibition of bacterial growth, ATCC 9144 (S. aureus) (S. aureus ATCC 9144): 60.74% and 61%
Percentage inhibition of bacterial growth, M6 (K. pneumoniae) (K. pneumoniae M6): 21.69% and 22%
Hepatic Extraction Ratio (ER) ([1]; rat): < 0.21
Predicted Hepatic CLH ([1]; rat): < 14.42 mL/min/kg
microsomal CLint at 1 µM ([1]; rat liver microsomes, 1 µM, 0.5 mg protein/mL, read-out: in vitro CLint): < 7.5 µL/min/mg
half-life at 1 µM ([1]; rat liver microsomes, 1 µM, 0.5 mg protein/mL, read-out: in vitro t1/2): > 3.08 h
Remaining percentage ([1]; rat, +Cofactors, 0.5 min): 100.00%
Remaining percentage ([1]; rat, +Cofactors, 5 min): 97.95%
Remaining percentage ([1]; rat, +Cofactors, 15 min): 96.49%
Remaining percentage ([1]; rat, +Cofactors, 30 min): 99.04%
Remaining percentage ([1]; rat, +Cofactors, 60 min): 100.06%
Remaining percentage ([1]; rat, -Cofactors, 0.5 min): 100.00%
Remaining percentage ([1]; rat, -Cofactors, 60 min): 102.63%
CLint scaled at 1 µM ([1]; rat, liver microsomes, read-out: Scale-up CLint): < 18.3 mL/min/kg
solubility [2]: 305 µM (≈ 105 µg/mL)
Percentage inhibition of bacterial growth, NCTC 12204 (E. faecium) (E. faecium NCTC 12204): 44.44% and 44%
Hepatic Extraction Ratio (ER) ([3]; mouse): < 0.26
Predicted Hepatic CLH ([3]; mouse): < 23.07 mL/min/kg
microsomal CLint at 1 µM ([3]; mouse liver microsomes, 1 µM, 0.5 mg protein/mL, read-out: in vitro CLint): < 7.5 µL/min/mg
half-life at 1 µM ([3]; mouse liver microsomes, 1 µM, 0.5 mg protein/mL, read-out: in vitro t1/2): > 3.08 h
Remaining percentage ([3]; mouse, +Cofactors, 0.5 min): 100.00%
Remaining percentage ([3]; mouse, +Cofactors, 5 min): 101.88%
Remaining percentage ([3]; mouse, +Cofactors, 15 min): 100.09%
Remaining percentage ([3]; mouse, +Cofactors, 30 min): 97.61%
Remaining percentage ([3]; mouse, +Cofactors, 60 min): 103.16%
Remaining percentage ([3]; mouse, -Cofactors, 0.5 min): 100.00%
Remaining percentage ([3]; mouse, -Cofactors, 60 min): 103.83%
CLint scaled at 1 µM ([3]; mouse, liver microsomes, read-out: Scale-up CLint): < 31 mL/min/kg
